From US5284774A (priority 1991, dated 1994) come the findings set out here.

Data set [1] concerns murine L1210 leukemia cells. It is filed as cell-based. To be noted: for IC90: l1210 cells, 45 min, read-out: LD90, murine L1210 leukemia cells (antitumor activity).
For data set [2], the target named is T1, System L (Mus musculus, UniProt Q9Z127).
T1 construct: Murine L1210 Leukemia cells were grown in RPMI 1630 medium; endogenous in cells; host or cells: murine L1210 leukemia cells
It is filed as cell-based, murine.

For data set [3] the following is noted: dulbecco's phosphate buffered saline.
For data set [4], the system named is murine CFU-C. The settings on record: for CC90: mouse, bone marrow cfu-c, 0.75 h.
Setting [5] is: read-out: KI, inhibition of initial rate of transport of BCH.
Where [6] appears, read: read-out: Ki, competitive inhibition of BCH transport.

pKi: −log10 of the molar value. “And” between values parts separate entries of the source, which are not always exact repeats. Identical values can stand only once. “Also recorded” adds a separate entry of the source. Like-named read-outs stand apart in the source and are kept apart here.

T1 sequence (Q9Z127 whole entry): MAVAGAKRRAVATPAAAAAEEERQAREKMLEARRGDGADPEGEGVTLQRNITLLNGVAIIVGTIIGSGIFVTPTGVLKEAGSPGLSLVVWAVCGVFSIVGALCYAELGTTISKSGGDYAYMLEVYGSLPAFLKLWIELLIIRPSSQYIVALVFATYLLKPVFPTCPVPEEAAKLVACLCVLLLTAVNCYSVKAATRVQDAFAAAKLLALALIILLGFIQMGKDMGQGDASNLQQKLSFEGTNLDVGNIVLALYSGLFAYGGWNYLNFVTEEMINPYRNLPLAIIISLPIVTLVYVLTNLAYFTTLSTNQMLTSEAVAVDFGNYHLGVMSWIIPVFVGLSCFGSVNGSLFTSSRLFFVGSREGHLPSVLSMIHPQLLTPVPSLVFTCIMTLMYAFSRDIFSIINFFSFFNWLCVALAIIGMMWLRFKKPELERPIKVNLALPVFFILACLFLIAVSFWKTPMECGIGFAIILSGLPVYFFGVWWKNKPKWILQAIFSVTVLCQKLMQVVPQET
T1 sequence (P10852 whole entry partner): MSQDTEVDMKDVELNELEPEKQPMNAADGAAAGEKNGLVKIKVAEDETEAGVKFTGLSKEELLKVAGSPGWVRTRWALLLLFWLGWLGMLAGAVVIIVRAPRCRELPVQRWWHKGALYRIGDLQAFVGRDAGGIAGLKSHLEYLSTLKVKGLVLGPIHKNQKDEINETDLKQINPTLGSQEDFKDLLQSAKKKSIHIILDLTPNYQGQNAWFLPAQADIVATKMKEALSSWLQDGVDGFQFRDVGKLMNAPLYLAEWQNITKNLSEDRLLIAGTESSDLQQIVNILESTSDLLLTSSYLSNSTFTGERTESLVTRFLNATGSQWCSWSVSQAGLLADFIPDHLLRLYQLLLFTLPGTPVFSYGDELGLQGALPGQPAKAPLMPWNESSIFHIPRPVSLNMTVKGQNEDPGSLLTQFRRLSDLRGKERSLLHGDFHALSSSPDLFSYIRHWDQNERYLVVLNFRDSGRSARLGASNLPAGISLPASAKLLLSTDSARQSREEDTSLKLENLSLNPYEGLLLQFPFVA

As a reminder, the pKi is the negative decadic logarithm of the Ki, by convention in mol/L. With `NC1(C(=O)O)CCc2ccc(N(CCCl)CCCl)cc2C1` (racemic) [Compound 6, DL-2-Amino-7-bis(2-chloroethyl)amino-1,2,3,4-tetrahydro-2-naphthoic acid], in data set [1], the “antitumor activity (in words)” value is reported as “enhanced antitumor activity”; the “improvement in therapeutic index” value is 2-2.5 fold and 2 fold; the IC90 was 26.5 µM. Also, in data set [2], the “KI lower / affinity for System L greater than that of L-phenylalanine mustard” value is 500 fold, the “inhibition of System L (in words)” value is listed as “extremely potent competitive inhibitor; also recorded: most potent inhibitor of System L”, the “more effective inhibitor of System L than BCH” value is 25-50 fold and the “more potent than 2-amino-1,2,3,4-tetrahydro-2-naphthoic acid” value is “approximately 40 fold”. In addition, the pKi in data set [2] (setting [5]) was around 6.70. In addition, the pKi in data set [2] (setting [6]) was 6.66. Further, the “half life (t1/2)” value in data set [3] is given as “approximately 40 minutes”. In data set [4], the “myelosuppressive activity (in words)” value is reported as “reduced myelosuppressive activity” and the CC90 was 23.8 µM.

For the compound `NC1(C(=O)O)CCc2c(cccc2N(CCCl)CCCl)C1` (racemic) [Compound 7, DL-2-Amino-5-bis-(2-chloroethyl) amino-1,2,3,4-tetrahydro-2-naphthoic acid], the “inhibition of System L (in words)” value in data set [2] is listed as “weaker inhibitor”. In addition, the pKi in data set [2] (setting [5]) is 4.82.

As for “L-phenylalanine mustard [L-PAM, reference compound]”, the IC90 in data set [1] was determined as 35 µM. For the same compound, the pKi in data set [2] (setting [6]) is 3.95. In data set [4], this compound returned a CC90 of 14 µM.
